# ChEMBL document CHEMBL4229552, “Optimization of 5-arylidene barbiturates as potent, selective, reversible LSD1 inhibitors for the treatment of acute promyelocytic leukemia” (Bioorg Med Chem, 2018)
# pIC50, pKd: −log10 of the molar value. Activity calls are given as the source filed them. The rule behind the calls is not given here.
# Assays:
# [1] = biological target: T1, Lysine-specific histone demethylase 1A (Homo sapiens, UniProt O60341)
# [2] = tested on: NB-4; test: Induction of differentiation of human NB4 cells assessed as increase in CD11b positive cells at 2.5 uM by flow cytometric analysis relative to control; assay type: functional
# [3] = tested on: NB-4; test: Induction of differentiation of human NB4 cells assessed as increase in CD11b positive cells at 5 uM by flow cytometric analysis relative to control; assay type: functional
# [4] = tested on: NB-4; test: Induction of differentiation of human NB4 cells assessed as increase in CD11b positive cells at 1.25 uM by flow cytometric analysis relative to control; assay type: functional, cell-based
# [5] = tested on: NB-4; test: Induction of differentiation of human NB4 cells assessed as increase in CD11b positive cells at 0.5 to 5 uM by flow cytometric analysis; assay type: functional, cell-based
# [6] = biological target: T1, Lysine-specific histone demethylase 1A; test: Binding affinity to fluorescently labeled recombinant human LSD1 expressed in Escherichia coli by MST analysis
# [7] = biological target: T1, Lysine-specific histone demethylase 1A; details: 4.1 uM
# [8] = biological target: T2, Amine oxidase [flavin-containing] A (Homo sapiens, UniProt P21397); test: Inhibition of recombinant full length N-terminal FLAG-tagged human MAO-A expressed in baculovirus infected Sf9 insect cells using […] as substrate after 1 hr by spectrometric method
# T2 sequence (P21397 whole entry): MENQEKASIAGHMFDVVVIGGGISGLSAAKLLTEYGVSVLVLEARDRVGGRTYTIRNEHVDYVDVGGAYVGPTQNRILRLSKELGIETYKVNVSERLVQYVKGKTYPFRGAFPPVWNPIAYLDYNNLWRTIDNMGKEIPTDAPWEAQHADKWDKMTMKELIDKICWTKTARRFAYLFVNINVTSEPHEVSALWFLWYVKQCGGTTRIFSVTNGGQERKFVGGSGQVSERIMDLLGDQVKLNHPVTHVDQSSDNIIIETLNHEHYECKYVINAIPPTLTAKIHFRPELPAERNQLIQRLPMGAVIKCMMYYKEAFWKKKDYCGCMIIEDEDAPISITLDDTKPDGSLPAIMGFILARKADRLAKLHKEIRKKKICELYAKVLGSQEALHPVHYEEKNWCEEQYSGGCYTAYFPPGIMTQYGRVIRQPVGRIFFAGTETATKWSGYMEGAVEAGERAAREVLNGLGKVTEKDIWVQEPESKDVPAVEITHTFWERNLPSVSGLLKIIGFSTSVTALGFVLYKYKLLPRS
# [9] = biological target: T3, Amine oxidase [flavin-containing] B (Homo sapiens, UniProt P27338); test: Inhibition of recombinant full length N-terminal FLAG-tagged human MAO-B expressed in baculovirus infected Sf9 insect cells using […] as substrate after 1 hr by spectrometric method
# T3 sequence (P27338 whole entry): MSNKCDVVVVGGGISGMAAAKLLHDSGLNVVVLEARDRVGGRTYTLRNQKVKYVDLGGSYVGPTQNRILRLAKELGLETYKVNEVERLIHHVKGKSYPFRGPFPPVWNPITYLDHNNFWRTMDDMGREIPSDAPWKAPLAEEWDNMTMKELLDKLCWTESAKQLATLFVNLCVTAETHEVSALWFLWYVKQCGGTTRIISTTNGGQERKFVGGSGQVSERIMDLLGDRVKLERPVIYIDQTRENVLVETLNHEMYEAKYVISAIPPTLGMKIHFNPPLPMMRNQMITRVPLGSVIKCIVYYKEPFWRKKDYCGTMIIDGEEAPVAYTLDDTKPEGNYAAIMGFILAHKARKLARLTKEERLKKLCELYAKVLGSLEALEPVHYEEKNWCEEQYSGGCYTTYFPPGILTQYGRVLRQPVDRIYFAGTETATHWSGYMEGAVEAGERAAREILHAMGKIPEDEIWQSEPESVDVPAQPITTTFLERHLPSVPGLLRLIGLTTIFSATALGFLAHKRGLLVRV
# [10] = organism: Homo sapiens
# [11] = organism: Homo sapiens; remark: listed apart in the source
# [12] = tested on: NB-4; test: Induction of differentiation of human NB4 cells assessed as increase in CD11b positive cells at 10 uM by flow cytometric analysis relative to control; assay type: functional
# [13] = biological target: T1, Lysine-specific histone demethylase 1A; test: Inhibition of LSD1 in HEK293 cells assessed as increase in H3K4me2 levels at 2.5 uM after 24 hrs by Western blot method; assay type: cell-based
# [14] = biological target: T1, Lysine-specific histone demethylase 1A; test: Inhibition of LSD1 in HEK293 cells assessed as increase in H3K4me1 levels at 10 uM after 24 hrs by Western blot method; assay type: cell-based
# [15] = biological target: T1, Lysine-specific histone demethylase 1A; remark: listed apart in the source
structure (smiles),measurement,setting,value
CCc1ccc(N2C(=O)NC(=O)/C(=C\c3cc4ccccc4[nH]3)C2=O)cc1,pIC50,[1],5.19
Cc1ccccc1N1C(=O)NC(=O)C(=Cc2cc3ccccc3[nH]2)C1=O,pIC50,[1],5.36
COc1ccc(C=C2C(=O)NC(=O)N(c3ccc(Br)cc3)C2=O)cc1O,pIC50,[1],5.44
COc1ccc(N2C(=O)NC(=O)C(=Cc3ccc(O)c(O)c3)C2=O)cc1,pIC50,[1],5.51
COc1cc(C=C2C(=O)NC(=O)N(c3ccc(Br)cc3)C2=O)cc(OC)c1O,Activity,[2],Active
same,Activity,[3],Active
same,Activity,[4],Active
same,pIC50,[1],6.26
COc1ccc(CC2C(=O)NC(=O)N(c3ccc(Br)cc3)C2=O)cc1OC (configuration not stated),pIC50,[1],< 4.12
COc1ccc(N2C(=O)NC(=O)/C(=C\c3ccc(N4CCOCC4)c(F)c3)C2=O)cc1,pIC50,[1],4.74
N#Cc1ccc(N2C(=O)NC(=O)C(=Cc3ccc(O)c(O)c3)C2=O)cc1,Activity,[5],Active
same,pIC50,[1],5.92
COc1ccc(C=C2C(=O)NC(=O)N(c3ccc(Br)cc3)C2=O)c(OC)c1OC,pIC50,[1],5.44
Cc1ccc(N2C(=O)NC(=O)C(=Cc3cccc(O)c3)C2=O)cc1,pIC50,[1],4.64
Cc1ccc(N2C(=O)NC(=O)C(=Cc3cc4ccccc4[nH]3)C2=O)cc1,Activity,[5],Active
same,pIC50,[1],5.96
COc1cc(C=C2C(=O)NC(=O)N(c3ccc(Br)cc3)C2=O)ccc1O,Activity,[2],Active
same,Activity,[3],Active
same,Activity,[4],Active
same,pIC50,[1],6.06
CN1CCN(C(=O)CN[C@H]2C[C@@H]2c2ccc(OCc3ccccc3)cc2)CC1,Activity,[5],Active
O=C1NC(=S)N(c2ccc(Br)cc2)C(=O)C1=Cc1ccc(O)c(O)c1,pKd,[6],5.96
same,Activity,[7],98.2%
same,pIC50,[8],4.14
same,pIC50,[9],< 3.70
same,Ratio IC50,[10],177
same,Ratio IC50,[11],> 487
same,Activity,[2],12.5%
same,Activity,[3],36.6%
same,Activity,[12],89.7%
same,inhibition,[13],Active
same,inhibition,[14],Active
same,pIC50,[1],6.39
O=C1NC(=O)N(c2ccc(Br)cc2)C(=O)C1=Cc1ccc(O)c(O)c1,Ratio IC50,[15],12
same,Activity,[5],Active
same,pIC50,[1],6.52
COc1ccc(C=C2C(=O)NC(=O)N(c3ccc(Br)cc3)C2=O)cc1OC,pIC50,[1],5.55
